Experimental data: patent publication US12187709B2 (Genentech, Inc., priority 2021, dated 2025)
pIC50, pKd: −log10 of the molar value.

Key:
Cbl-b = Cbl-b (Homo sapiens (Human), UniProt Q13191); assay: Cbl-b LCK Ub TR-FRET assay (Cbl-b Lck HTRF); assay type: biochemical; conditions: for pIC50: Cbl-b LCK Ub TR-FRET; for (fold-selectivity) Cbl-b and C-Cbl Selectivity / fold-selectivity (Cbl-b over C-cbl): ratio C-cbl Lck HTRF IC50 / Cbl-b Lck HTRF IC50
In short: (§1)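 After the ubiquitination reaction, detection mixture was added and plates incubated 20 min at room temperature before reading. IC50 values were calculated with wells lacking LCK as the low control and DMSO as the high control.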

c-Cbl = c-Cbl (Homo sapiens (Human), UniProt P22681); assay: C-Cbl LCK Ub TR-FRET assay (C-cbl Lck HTRF); assay type: biochemical
Sequence of c-Cbl (P22681 47-435): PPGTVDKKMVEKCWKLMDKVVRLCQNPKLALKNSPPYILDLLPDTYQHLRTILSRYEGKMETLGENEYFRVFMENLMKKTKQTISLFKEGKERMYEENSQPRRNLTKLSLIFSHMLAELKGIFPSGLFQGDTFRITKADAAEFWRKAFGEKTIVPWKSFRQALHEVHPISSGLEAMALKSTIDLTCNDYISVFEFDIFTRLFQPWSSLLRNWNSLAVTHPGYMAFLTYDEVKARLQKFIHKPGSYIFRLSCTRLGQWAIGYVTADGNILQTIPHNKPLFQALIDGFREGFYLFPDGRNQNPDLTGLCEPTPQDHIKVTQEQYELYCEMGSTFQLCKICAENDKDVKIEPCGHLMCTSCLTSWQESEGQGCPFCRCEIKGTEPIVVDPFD
In short: as §1

[1] = biological target: Human Cbl-b (residues 40-426) (Homo sapiens (Human), UniProt Q13191); assay: Cbl-b SPR assay; assay type: binding; conditions: for Fold of selectivity: C-cbl SPR Kd vs Cbl-b SPR Kd; for pKd: SPR, 20° C.
Sequence of Human Cbl-b (residues 40-426) (Q13191 40-426): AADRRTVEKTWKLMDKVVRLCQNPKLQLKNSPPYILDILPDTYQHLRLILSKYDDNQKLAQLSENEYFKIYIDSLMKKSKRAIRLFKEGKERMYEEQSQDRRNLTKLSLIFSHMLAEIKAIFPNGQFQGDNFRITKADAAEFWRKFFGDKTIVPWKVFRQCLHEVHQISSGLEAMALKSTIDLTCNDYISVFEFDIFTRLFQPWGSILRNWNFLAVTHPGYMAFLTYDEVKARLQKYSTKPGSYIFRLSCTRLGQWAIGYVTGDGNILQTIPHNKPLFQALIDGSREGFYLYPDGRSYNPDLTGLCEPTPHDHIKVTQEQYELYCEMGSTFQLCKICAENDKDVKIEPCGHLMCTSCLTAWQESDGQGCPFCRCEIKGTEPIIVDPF
In short: (§2)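 Binding is measured by surface plasmon resonance against both isoforms, with double referencing and 1:1 kinetic fitting. Dissociation time is tuned to 4-5 half-lives.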

c-Cbl (residues 47-435) = c-Cbl (residues 47-435) (Homo sapiens (Human), UniProt P22681); assay: c-Cbl SPR assay; assay type: binding; conditions: 20° C.
Sequence of c-Cbl (residues 47-435) (P22681 47-435): as the sequence (P22681 47-435) above
In short: as §2

Sequence of Cbl-b (Q13191 40-426): as the sequence (Q13191 40-426) above

| SMILES | pIC50 (Cbl-b; Example 121) | (fold-selectivity) Cbl-b and C-Cbl Selectivity (Cbl-b) | pIC50 (c-Cbl) | Fold of selectivity [1] | pKd [1] | pKd (c-Cbl (residues 47-435)) | pIC50 (Cbl-b) | fold-selectivity (Cbl-b over C-cbl) (Cbl-b) |
| --- | --- | --- | --- | --- | --- | --- | --- | --- |
| Cn1cnnc1[C@@H](c1cccc(N2Cc3c(cc(CNC4(C)CCC4)cc3C(F)(F)F)C2=O)c1)C1(O)CCC1 (single isomer, unassigned) [Compound 429] | 7.43 | 5.1x | 6.70 | 4.8× | 7.38 | 6.77 | – | – |
| CC[C@@](F)(c1cccc(N2Cc3c(cc(CNC4(C)CCC4)cc3C(F)(F)F)C2=O)c1)c1nncn1C (single isomer, unassigned) [Compound 394] | – | – | 8.42 | 2.4× | 9.19 | 8.85 | 8.34 | 0.8x |
| CO[C@H]1C[C@](c2cccc(N3Cc4c(cc(CNC56CC(C5)C6)cc4C(F)(F)F)C3=O)c2)(c2nncn2C)C1 [Compound 485, 6-((bicyclo[1.1.1]pentan-1-ylamino)methyl)-2-(3-((1r,3r)-3-methoxy-1-(4-methyl-4H-1,2,4-triazol-3-yl)cyclobutyl)phenyl)-4-(trifluoromethyl)isoindolin-1-one] | 7.89 | 5.2x | 7.17 | 14× | 8.13 | 6.96 | – | – |
| Cn1cnnc1C1(c2cccc(N3Cc4c(cc(CNC5(C)CCC5)cc4C(F)(F)F)C3=O)c2)CC2(CN(CC(F)(F)F)C2)C1 [Compound 96, 2-(3-(6-(4-methyl-4H-1,2,4-triazol-3-yl)-2-(2,2,2-trifluoroethyl)-2-azaspiro[3.3]heptan-6-yl)phenyl)-6-(((1-methylcyclobutyl)amino)methyl)-4-(trifluoromethyl)-isoindolin-1-one] | – | – | 4.80 | 4.1× | 5.37 | 4.74 | 5.35 | 3.7x |
| Cn1cnnc1[C@]1(c2cc(NC3CCCC3)cc(N3Cc4c(cc(CNC5(C)CCC5)cc4C(F)(F)F)C3=O)c2)C[C@H](C)C1 [Compound 177, 2-(3-(cyclopentylamino)-5-((1s,3s)-3-methyl-1-(4-methyl-4H-1,2,4-triazol-3-yl)cyclobutyl)phenyl)-6-(((1-methylcyclobutyl)amino)methyl)-4-(trifluoromethyl)isoindolin-1-one] | – | – | 6.74 | 10× | 8.00 | 7.00 | 7.23 | 2.8x |
| Cn1cnnc1[C@H](c1cccc(N2Cc3c(cc(CNC4(C)CCC4)cc3C(F)(F)F)C2=O)c1)C1(F)COC1 (single isomer, unassigned) [Compound 381] | – | – | 7.80 | 6.0× | 8.57 | 7.80 | 8.06 | 1.9x |
| CO[C@H]1C[C@](c2cc(NC3CC3)cc(N3Cc4c(cc(CNC5(C)CCC5)cc4C(F)(F)F)C3=O)c2)(c2nncn2C)C1 [Compound 214, 2-(3-(cyclopropylamino)-5-((1r,3r)-3-methoxy-1-(4-methyl-4H-1,2,4-triazol-3-yl)cyclobutyl)phenyl)-6-(((1-methylcyclobutyl)amino)methyl)-4-(trifluoromethyl)isoindolin-1-one] | – | – | 8.05 | 4.7× | 9.05 | 8.38 | 8.03 | 0.97x |
| CCNc1cc(N2Cc3c(cc(CNC4(C)CCC4)cc3C(F)(F)F)C2=O)cc([C@]2(c3nncn3C)C[C@@H](OC)C2)c1 [Compound 227, 2-(3-(ethylamino)-5-((1s,3s)-3-methoxy-1-(4-methyl-4H-1,2,4-triazol-3-yl)cyclobutyl)phenyl)-6-(((1-methylcyclobutyl)amino)methyl)-4-(trifluoromethyl)isoindolin-1-one] | – | – | 7.80 | 6.5× | 8.77 | 7.96 | 8.00 | 1.6x |
| Cn1cnnc1[C@@H](c1cccc(N2Cc3c(cc([C@H](NC4(C)CCC4)C4CC4)cc3C(F)(F)F)C2=O)c1)C1COC1 (single isomer, unassigned) [Compound 431] | 8.28 | 1.1x | 8.24 | 3.1× | 9.40 | 8.89 | – | – |
| Cn1cnnc1C1(c2cccc(N3Cc4c(cc(CNC5(C)CCC5)cc4C(F)(F)F)C3=O)c2)CC(=O)C1 [Compound 19, 2-(3-(1-(4-methyl-4H-1,2,4-triazol-3-yl)-3-oxocyclobutyl)phenyl)-6-(((1-methylcyclobutyl)-amino)methyl)-4-(trifluoromethyl)isoindolin-1-one] | – | – | 6.75 | 5.0× | 7.40 | 6.70 | 7.06 | (2.0x) |
| Cn1cnnc1[C@]1(c2cccc(N3Cc4c(cc(CNC5(C)CCC5)cc4C(F)(F)F)C3=O)c2)C[C@@]2(CCCO2)C1 [Compound 341, 2-(3-((2r, 4s)-2-(4-methyl-4H-1,2,4-triazol-3-yl)-5-oxaspiro [3.4]octan-2-yl)phenyl)-6-(((1-methylcyclobutyl)amino)methyl)-4-(trifluoromethyl) isoindolin-1-one] | – | – | 7.00 | 11× | 7.96 | 6.92 | 7.89 | 8.4x |
| Cc1cc([C@@H](c2nncn2C)C2COC2)cc(N2Cc3c(cc(CNC4(C)CCC4)cc3C(F)(F)F)C2=O)c1 (single isomer, unassigned) [Compound 333] | – | – | 7.39 | 2.2× | 7.59 | 7.25 | 7.41 | 1.0x |
| Cn1cnnc1C1(c2cccc(N3Cc4c(cc([C@H](O)CO)cc4C(F)(F)F)C3=O)c2)CCC1 (single isomer, unassigned) [Compound 302] | – | – | 6.06 | 4.0× | 6.39 | 5.80 | 6.39 | 2.1x |
| Cn1cnnc1[C@H](c1cccc(N2Cc3c(Cl)cc(CNC4(C)CCC4)cc3C2=O)c1)[C@H]1C[C@H](F)C1 (single isomer, unassigned) [Compound 320] | – | – | 8.12 | 5.5× | 9.40 | 8.66 | 8.25 | 1.3x |
| Cn1cnnc1C1(c2cccc(N3Cc4c(cc(CNC5(C)CCC5)cc4C(F)(F)F)C3=O)c2)CC2(CC(F)(F)C2)C1 [Compound 94, 2-(3-(6,6-difluoro-2-(4-methyl-4H-1,2,4-triazol-3-yl)spiro[3.3]heptan-2-yl)phenyl)-6-(((1-methylcyclobutyl)amino)methyl)-4-(trifluoromethyl)isoindolin-1-one] | – | – | 6.92 | 19× | 8.13 | 6.85 | 7.68 | 6.0x |
| C=CCOc1cc(N2Cc3c(cc(CNC4(C)CCC4)cc3C(F)(F)F)C2=O)cc([C@]2(c3nncn3C)C[C@@H](OC)C2)c1 [Compound 205, 2-(3-(allyloxy)-5-((1s,3s)-3-methoxy-1-(4-methyl-4H-1,2,4-triazol-3-yl)cyclobutyl)phenyl)-6-(((1-methylcyclobutyl)amino)methyl)-4-(trifluoromethyl)isoindolin-1-one] | – | – | 6.62 | 2.8× | 7.34 | 6.89 | 7.20 | 3.8x |
| CO[C@H]1C[C@](c2cccc(N3Cc4ccc(CNC5(C)CCC5)cc4C3=O)c2)(c2nncn2C)C1 [Compound 449, 2-(3-((1r,3r)-3-methoxy-1-(4-methyl-4H-1,2,4-triazol-3-yl)cyclobutyl)phenyl)-6-(((1-methylcyclobutyl)amino)methyl)isoindolin-1-one] | 6.66 | 5.4x | 5.92 | 8.0× | 6.92 | 6.04 | – | – |
| CO[C@H]1C[C@@](c2cc(NC3CCCC3)nc(N3Cc4c(cc(CNC5(C)CCC5)cc4C(F)(F)F)C3=O)c2)(c2nncn2C)C1 [Compound 8, 2-(6-(cyclopentylamino)-4-((1s,3s)-3-methoxy-1-(4-methyl-4H-1,2,4-triazol-3-yl)cyclobutyl)pyridin-2-yl)-6-(((1-methylcyclobutyl)amino)methyl)-4-(trifluoromethyl)isoindolin-1-one] | – | – | 7.37 | 6.9× | 8.48 | 7.64 | 7.96 | 3.9x |
| CO[C@H]1C[C@@H]([C@@H](c2cccc(N3Cc4c(cc(CN5CCN(C)C[C@@H]5C(C)C)cc4C(F)(F)F)C3=O)c2)c2nncn2C)C1 (single isomer, unassigned) [Compound 14] | – | – | 6.00 | 8.8× | 6.20 | 5.26 | 6.20 | (1.6x) |
